How the values were obtained:
FAS receptor = assay: FAS mRNA expression in splenocytes of AIA rats, RT-PCR; format: in vivo, rat; conditions: compared to Non-Cit-ME and control groups
Experimental: To examine whether Cit-ME affects apoptosis through the FAS receptor pathway, FAS mRNA expression in splenocytes was evaluated (FIG. 14F), using the following RT-PCR primers: forward 5′-TGGCTGTCCTGCCTCTGGT-3′ (SEQ ID NO: 19) and reverse 5′-[…]-3′ (SEQ ID NO: 20).

[1] = test system: anti cit-β-fibrinogen ACPA; assay: Peptide inhibition assay in ELISA, plates coated with cit-β-fibrinogen; design: species or system human; conditions: sera of ACPA-positive RA patients diluted to about 50% binding OD, 2 h preincubation at room temperature
Experimental: (§1) Peptide inhibition assay in ELISA was used to confirm the cross-reactivity of the Cit-ME peptide to the following anti-citrullinated protein antibodies (ACPA): anti citrullinated filaggrin, anti cit-β-fibrinogen, anti cit-collagen and anti cit-vimentin. Sera were obtained from ACPA RA patients and samples with highly positive ACPA levels were selected (≥100 U/ml) using commercial CCP ELISA test (INOVA). ELISA test was performed with each of the citrullinated peptides: cit-filaggrin (HQCHQESTCitGRSRGRCGRSGS) set forth in SEQ ID NO: 3, cit-β-fibrinogen (CitPAPPPISGGGYCitACit) set forth in SEQ ID NO: 2, cit-collagen (ACitGLTGCitPGDAK) set forth in SEQ ID NO: 21 and cit-vimentin (SAVRACitSSVPGVRK) set forth in SEQ ID NO: 22. Sera were diluted in PBS to obtain a reactivity of approximately 50% binding OD under standard assay conditions. Increasing concentrations of Cit-ME peptide were added to the diluted sera and incubated for two hours at room temperature. Specimens were then assayed in ELISA plates coated with each one of the peptides. […] Thus, ACPA have binding specificity to Cit-ME.

anti cit-collagen ACPA = assay: Peptide inhibition assay in ELISA, plates coated with cit-collagen; design: species or system human; conditions: sera of ACPA-positive RA patients diluted to about 50% binding OD, 2 h preincubation at room temperature
Experimental: as §1

AIA rats = assay: Histological signs of arthritis in ankle joints of AIA rats; format: in vivo, rat; conditions: day 28 post disease induction, H&E, untreated 1.75±0.41
Experimental: To evaluate the histological signs of arthritis, rats were sacrificed and ankle joints were collected on day 28 post disease induction. The joints were fixed immediately for 24 hours in 4% paraformaldehyde, then decalcified in rapid bone decalcifier (RDO; Apex Engineering, Plainfield, Ill., USA) for 6 hours at room temperature, and further fixed in 4% paraformaldehyde before embedding in paraffin. Sections (5 μm thick) were rehydrated in a graded ethanol series and stained with haematoxylin & eosin (H&E). FIGS. 11A to 11C show representative H&E stained joint tissue sections (magnification ×100). Arrowheads denote the infiltrated zones, scale bar=200 μm. The specimens were scored for severity of inflammation in the synovium, pannus formation, cartilage, and bone erosion. A close correlation between the clinical signs and the histopathological findings was found.

[2] = test system: T cells derived from the spleen; assay: Apoptosis of T cells from the spleen of AIA rats, Annexin V/PI staining; format: in vivo, rat; conditions: gated for PI and CD4+, two independent experiments, control 13±1%
Experimental: To assess apoptosis of T cells derived from the spleen of treated rats, the Annexin V/PI staining method was preformed. FIGS. 14A-14C are representative histograms of cells treated with Cit-Me (FIG. 14A), non-Cit-Me (FIG. 14B) or untreated (FIG. 14C). The histograms present apoptosis measured by Annexin V^+. First, cells were gated for PI and CD4^+ and next analyzed for percentage of Annexin-V positive cells. […] A significant increase (p<0.01) in the mean apoptotic rate was determined in cells from the spleen of Cit-ME treated rats (19.5±1.8%) in comparison with Non-Cit-ME or control (13.8±1.3% and 13±1%, respectively).

[3] = test system: anti citrullinated filaggrin ACPA; assay: Peptide inhibition assay in ELISA, plates coated with cit-filaggrin; design: species or system human; conditions: sera of ACPA-positive RA patients diluted to about 50% binding OD, 2 h preincubation at room temperature
Experimental: as §1

“VCitLCitSSVESTCitGRSCitPAPPPACitGLT [Cit-ME]” was tested, and the “mean relative expression level of FAS mRNA” value (FAS receptor) was “significantly higher”, the “amount of peptide sufficient to impair binding of specific ACPA to cit-β-fibrinogen” value [1] was 10 to 200 µg and the “amount of peptide sufficient to impair binding of specific ACPA to cit-collagen” value (anti cit-collagen ACPA) was 10 to 200 µg. The histological inflammatory score (AIA rats) was 0.54±0.2, the “mean apoptotic rate (Annexin-V positive cells)” value [2] was 19.5±1.8% and the “amount of peptide sufficient to impair binding of specific ACPA to cit-filaggrin” value [3] was 10 to 200 µg.
